Results on 2 compounds are retold here after patent US20210037856A1, “Ruminant Feed Composition Comprising A Muramidase” (Novozymes A/S, priority 2018, published 2021).

Experiment [1] has as its system Staphylococcus aureus. The conditions noted are these: does not cleave N,6-O-diacetylmuramic acid in cell walls; Masschalck et al. 2002; cited from earlier work.
The test system of experiment [2] is rumen fluid. The experiment in a line: in vitro ruminal fermentation, 13 muramidases, 12 h (Example 3). More on the design: species or system cow. The following applies: PC at dosage 0.01 mg/40 mL. The procedure:
(§1) The trial was performed by Alimetrics (Alimetrics Ltd, Koskelontie 19B, FIN-02920 Espoo, Finland) using 120 mL serum bottles as fermentation vessels. The fermentation preparation and procedure is presented in Kettunen et al., (Kettunen H., J. Vuorenmaa, D. Gaffney and J. Apajalahti (2016): Yeast hydrolysate product enhances ruminal fermentation in vitro. J. App. Anim. Nutr., Vol. 4; e1; page 1 of 7). In short, the method is as follows: All bottles were initially filled with 1 g of feed DM composed from corn silage, barley meal, soybean meal, at the amounts of 0.5, 0.4, and 0.1 g DM, respectively. Subsequently, the bottles were flushed with CO2 passed through a hot copper catalyst for O2 scavenging and sealed with thick butyl rubber stopper. Anaerobic, reduced and temperature adjusted (+38° C.) artificial saliva buffer solution (Modified from Agriculture Handbook No. 379, (USDA, Washington, D.C., 1975), volume of 37.65 ml), freshly strained rumen fluid (5% inoculum; volume of 2 ml), and test compounds (volume of 0.35 ml) was introduced into the fermentation vessels under the oxygen-free CO2 flow. Following rumen fluid collection from a ruminal cannulated cow. Rumen fluid was pumped directly from the rumen into a preheated thermos and immediately closed, and transported to Alimetrics laboratory. The rumen fluid was used for inoculation within 2 hours of harvest. To ensure that both liquid and particle associated ruminal microbes were present in the inoculum both fractions were obtained. Liquid and solid fractions were strained through a metal mesh (grid size 3×3 mm) under anaerobic conditions prior to buffer dilution.
(§2) Following inoculation with rumen fluid, buffer and test solution the vessels were sealed with the butyl rubber septum's. All fermentation vessels were inoculated in random order to prevent the possible block effects. Inoculation time for each fermentation vessel was registered and was taken into account op on each sampling to ensure that duration of the fermentation was the same for each sample. The fermentation was continued for 12 h in a gyratory shaker at +38° C. Fermentation gas produced was measured and relived by collection of the fermentation gas in syringes at time 3, 6, 9, and 12 h. Feed residues were measured after 12 h fermentation.
The trial design was a dosage response, complete randomized design with 28 treatments using 150 fermentation vessels according to table 3. The 13 muramidase solutions were diluted to the concentration needed in enzyme buffer (BSA, Tween 20, acetate-buffer, Calcium, NaOH, adjusted to pH 6). Negative control was supplemented with the same buffer solution that was used for diluting the enzymes to reach the same liquid volume as the supplemented fermentation vessels. The ionophore Monensin (Monensin sodium salt, 90-95% TLC (Sigma Aldrich; Product code: M5273-1G)) was chosen as a positive control because it is a ruminants feed additive that affects volatile fatty acids (VFA) production.
Liquid samples obtained at 12 h were analyzed for the concentration of VFA (acetate, propionate, butyrate, and valerate) by GC-FID using a glass column packed with 80/120 carbopack B-DA/4% Carbowax stationary and helium as a carrier gas (Kettunen H., J. Vuorenmaa, T. Rinttilä, H. Grönberg, E. Valkonen and J. Apajalahti (2015): Natural resin acid-enriched composition as a modulator of intestinal microbiota and performance enhancer in broiler chicken. J. App. Anim. Nutr., Vol. 3; e2; page 1 of 9).
(§3) Digestibility of dry matter was quantified by determination of dry matter in the original feed matrix and in all fermentation vessels after 12 h of fermentation. Feed residues from the fermentation vessels were obtained by filtration tared sintered glass filters, washed with water and dried at 105° C. for 12 hours. Finally, the glass filters are weighed for the residual feed dry matter.
(§4) Dry matter digestibility (DMd) was calculated at the ratio between feed residues after end fermentation and the dry matter fed. […]

The test system of experiment [3] is rumen fluid. The experiment in a line: in vitro ruminal fermentation, 22 muramidases, 12 h (Example 4). More on the design: species or system cow; DMd: unit not given here. The conditions noted are these: PC (Monensin) 0.01 or 0.10 mg/40 ml, not stated which. The procedure:
as §1, with “was collected” for “collection”
as §2, with “solution,” for “solution”
The trial design was a dosage response, complete randomized design with 27 treatments using 145 fermentation vessels according to table 5. […] Negative control was supplemented with the same buffer solution that was used for diluting the enzymes to reach the same liquid volume as the supplemented fermentation vessels. The ionophore Monensin (Monensin sodium salt, 90-95% TLC (Sigma Aldrich; Product code: M5273-1G)) was chosen as a positive control because it is a ruminants feed additive that affects volatile fatty acids (VFA) production.
Liquid Samples Obtained at 12 h were Analyzed for the Concentration of VFA (Acetate, Propionate, butyrate, and valerate) by GC-FID using a glass column packed with 80/120 carbopack B-DA/4% Carbowax stationary and helium as a carrier gas (Kettunen H., J. Vuorenmaa, T. Rinttilä, H. Grönberg, E. Valkonen and J. Apajalahti (2015): Natural resin acid-enriched composition as a modulator of intestinal microbiota and performance enhancer in broiler chicken. J. App. Anim. Nutr., Vol. 3; e2; page 1 of 9).
as §3, §4

[4] abbreviates: dry matter digestibility after 12 h.
[5] abbreviates: summed carbon in VFA after 12 h.

Counter-ions that a name gives are not always drawn.

For “Muramidase extracted from hen egg white: GH22 muramidase from hen egg white, primary product available on the commercial market”, the “lysis of Staphylococcus aureus” value in experiment [1] was “unable to lyse”.

In the case of `CC[C@@]1([C@@H]2O[C@@H]([C@H]3O[C@@](O)(CO)[C@H](C)C[C@@H]3C)C[C@@H]2C)CC[C@H]([C@]2(C)CC[C@]3(C[C@H](O)[C@@H](C)[C@@H]([C@@H](C)[C@@H](OC)[C@H](C)C(=O)O)O3)O2)O1` [PC, Monensin sodium salt, reference compound], the Acetate in experiment [2] (VFA production after 12 h) came out at 47.5 mmol/L; in experiment [3] (VFA production after 12 h) it was 44.2 mmol/L. Besides, the values for the Butyrate in experiment [2] (VFA production after 12 h) and in experiment [3] (VFA production after 12 h) were 3.86 mmol/L and 3.7 mmol/L, respectively. For the same compound, the results for the Propionate in experiment [2] (VFA production after 12 h) and in experiment [3] (VFA production after 12 h) were 46.4 mmol/L and 42.8 mmol/L, respectively. The DMd in experiment [2] (setting [4]) was 0.55; in experiment [3] (setting [4]) it was 0.51. Moreover, the “Total VFA” value is reported as 98 mmol/L in experiment [2] (sum of VFA after 12 h) and 91 mmol/L in experiment [3] (sum of VFA after 12 h). In addition, the “Carbon in VFA” value in experiment [2] (setting [5]) is 251 mmol/L; in experiment [3] (setting [5]), 234 mmol/L.
